Where “and” joins values, the source holds several entries; their conditions need not be identical. Identical values can stand only once. Counter-ions that a name gives are not always drawn.
Tests used:
[1] = target: T1, human RORγt LBD (Homo sapiens, UniProt P51449); assay: RORγt reporter assay (GAL4-RORγt LBD luciferase in HEK293T cells); type: cell-based; conditions: for RORγt reporter Assay, % inhibition @ 6 μM / IC50: HEK293T cells; for RORγt reporter Assay, % inhibition @ 6 μM: 6 μM compound; for IC50: 24 hours compound treatment; for inhibition at 6 µM: HEK-293T, read-out: RORγt reporter Assay, % inhibition @ 6 μM, HEK293T cells, 6 μM compound
T1 construct: expressed in transfected cells
T1 sequence (P51449 258-518): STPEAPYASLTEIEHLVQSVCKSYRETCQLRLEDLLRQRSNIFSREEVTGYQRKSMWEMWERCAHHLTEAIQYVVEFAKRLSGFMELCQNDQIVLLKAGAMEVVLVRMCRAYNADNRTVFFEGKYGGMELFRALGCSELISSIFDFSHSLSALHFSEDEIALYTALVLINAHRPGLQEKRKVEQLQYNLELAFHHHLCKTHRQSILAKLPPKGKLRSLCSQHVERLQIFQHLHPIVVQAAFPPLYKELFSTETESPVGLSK
Summary of the method: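 HEK293T cells transiently co-transfected with pBIND (GAL4 DBD fused to wild-type human RORγt LBD, plus SV40-driven renilla luciferase) and pGL4.31 GAL4-responsive firefly luciferase reporter. Plated in phenol-red-free DMEM with 5% lipid-reduced FCS and treated with compound for 24 h. Firefly/renilla luminescence ratio plotted against compound concentration.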

[2] = system: IL-17 production by CD4 T cells; assay: Human Th17 assay (IL-17 production by CD4 T cells under Th17 differentiation conditions); type: cell-based; conditions: IL-17 in supernatant after 3 days
Protocol: The human Th17 assay tests the effect of RORγt modulatory compounds on IL-17 production by CD4 T cells under conditions which favor Th17 differentiation. Total CD4^+ T cells were isolated from the peripheral blood mononuclear cells (PBMC) of healthy donors using a CD4^+ T cell isolation kit II, following the manufacturer's instructions (Miltenyi Biotec). […] 50 μL of compound at titrated concentrations in DMSO were added into each well at final DMSO concentration at 0.2%. Cells were incubated for 1 hour, then 50 μL of Th17 cell differentiation medium was added to each well. The final concentrations of antibodies and cytokines (R&D Systems) in differentiation medium were: 3×10^6/mL anti-CD3/CD28 beads (prepared using human T cell activation/expansion kit, Miltenyi Biotec), 10 μg/mL anti-IL4, 10 μg/mL anti-IFNγ, 10 ng/mL IL113, 10 ng/mL IL23, 50 ng/mL IL6, 3 ng/mL TGFβ and 20 U/mL IL2. Cells were cultured at 37° C. and 5% CO2 for 3 days. Supernatants were collected and the accumulated IL-17 in culture was measured by using MULTI-SPOT® Cytokine Plate following manufacture's instruction (Meso Scale Discovery). The plate was read using Sector Imager 6000, and IL-17 concentration was extrapolated from the standard curve. The IC50s were determined by GraphPad.

[3] = target: T2, human RORγt ligand binding domain (RORγt LBD) (Homo sapiens, UniProt P51449); assay: RORγt ThermoFluor assay (thermal shift, ligand binding affinity); conditions: estimated from concentration response of thermal shift
T2 construct: His-tag (N); TurboTEV protease cleavage site (ENLYFQG) (N); made in house; host or cells: E. coli (pHIS1, modified pET vector)
T2 sequence (P51449 with tags, fused parts or gaps): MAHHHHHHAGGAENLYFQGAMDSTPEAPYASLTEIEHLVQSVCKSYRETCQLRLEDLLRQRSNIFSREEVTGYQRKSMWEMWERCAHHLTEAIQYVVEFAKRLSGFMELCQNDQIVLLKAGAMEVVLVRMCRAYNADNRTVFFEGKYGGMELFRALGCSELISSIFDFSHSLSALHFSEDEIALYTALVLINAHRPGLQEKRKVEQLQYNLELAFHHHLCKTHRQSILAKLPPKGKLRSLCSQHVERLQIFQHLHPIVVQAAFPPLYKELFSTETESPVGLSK
Summary of the method: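 Thermal shift of 0.065 mg/mL RORγt with 60 μM 1,8-ANS in 100 mM Hepes pH 7.0, 10 mM NaCl, 2.5 mM GSH, 0.002% Tween-20. Compounds in 1:2 series from 10 mM DMSO stock. Dye fluorescence (500 nm emission) tracked versus temperature; ΔTm used to derive KD.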

SMILES	RORγt reporter Assay, % inhibition @ 6 μM [1] [%]	IC50 [1]	IC50 ([2]; Homo sapiens, CD4+ T, 72 h) [µM]	Kd [3] [µM]	inhibition at 6 µM [1] [%]	IC50 [2] [µM]
Cc1cc(C(O)(c2ccc(F)cc2)c2cncn2C)cc2c(C#N)c(-c3cccc(F)c3)c(C#N)nc12 (single isomer, unassigned) [Example 175c, 3-(3-Fluorophenyl)-6-((4-fluorophenyl)(hydroxy)(1-methyl-1H-imidazol-5-yl)methyl)-8-methylquinoline-2,4-dicarbonitrile]	95	0.14 µM	0.11	0.064	–	–
Cc1cc(C(O)(c2ccc(C(F)(F)F)nc2)c2cncn2C)cc2c(C#N)c(-c3cccc(F)c3)c(C#N)nc12 (single isomer, unassigned) [Example 176c, 3-(3-Fluorophenyl)-6-(hydroxy(1-methyl-1H-imidazol-5-yl)(6-(trifluoromethyl)pyridin-3-yl)methyl)-8-methylquinoline-2,4-dicarbonitrile]	95	0.32 µM	0.31	0.068	–	–
COc1nc2c(C)cc(C(O)(c3ccc(C(F)(F)F)nc3)c3cncn3C)cc2c(Cl)c1-c1cccc(F)c1 (single isomer, unassigned) [Example 177b, (4-Chloro-3-(3-fluorophenyl)-2-methoxy-8-methylquinolin-6-yl)(1-methyl-1H-imidazol-5-yl)(6-(trifluoromethyl)pyridin-3-yl)methanol]	–	0.4 µM	–	0.022	83	0.2
COc1nc2c(C)cc(C(O)(c3ccc(C(F)(F)F)nc3)c3cncn3C)cc2c(Cl)c1-c1cccc(F)c1 (single isomer, unassigned) [Example 177c, (4-Chloro-3-(3-fluorophenyl)-2-methoxy-8-methylquinolin-6-yl)(1-methyl-1H-imidazol-5-yl)(6-(trifluoromethyl)pyridin-3-yl)methanol]	98	0.36 µM	–	1.3	–	2.5
COc1nc2c(C)cc(C(O)(c3ccc(F)cc3)c3cncn3C)cc2c(Cl)c1-c1cccc(F)c1 (single isomer, unassigned) [Example 178c, (4-Chloro-3-(3-fluorophenyl)-2-methoxy-8-methylquinolin-6-yl)(4-fluorophenyl)(1-methyl-1H-imidazol-5-yl)methanol]	96	0.035 µM	0.045	0.029	–	–
COc1nc2c(C)cc(C(O)(c3ccc(C(F)(F)F)nc3)c3cncn3C)cc2c(C#N)c1-c1cccc(F)c1 (single isomer, unassigned) [Example 179c, 3-(3-Fluorophenyl)-6-(hydroxy(1-methyl-1H-imidazol-5-yl)(6-(trifluoromethyl)pyridin-3-yl)methyl)-2-methoxy-8-methylquinoline-4-carbonitrile]	96	0.48 µM	~1	0.063	–	–
COc1nc2c(C)cc(C(O)(c3ccc(F)cc3)c3cncn3C)cc2c(C#N)c1-c1cccc(F)c1 (single isomer, unassigned) [Example 180b, 3-(3-Fluorophenyl)-6-((4-fluorophenyl)(hydroxy)(1-methyl-1H-imidazol-5-yl)methyl)-2-methoxy-8-methylquinoline-4-carbonitrile]	–	1.9 µM and ~3 µM	–	67	80	~5
COc1nc2c(C)cc(C(O)(c3ccc(F)cc3)c3cncn3C)cc2c(C#N)c1-c1cccc(F)c1 (single isomer, unassigned) [Example 180c, 3-(3-Fluorophenyl)-6-((4-fluorophenyl)(hydroxy)(1-methyl-1H-imidazol-5-yl)methyl)-2-methoxy-8-methylquinoline-4-carbonitrile]	99	0.17 µM	–	0.093	–	0.097
CC(=O)N1CCC(C(O)(c2ccc3nc(C(F)(F)F)c(-c4ccccc4)c(C(F)(F)F)c3c2)c2cncn2C)CC1 (single isomer, unassigned) [Example 181b, 1-(4-(Hydroxy(1-methyl-1H-imidazol-5-yl)(3-phenyl-2,4-bis(trifluoromethyl)quinolin-6-yl)methyl)piperidin-1-yl)ethanone]	–	0.062 µM	0.12	0.027	99	–
CC(=O)N1CCC(C(O)(c2ccc3nc(C(F)(F)F)c(-c4ccccc4)c(C(F)(F)F)c3c2)c2cncn2C)CC1 (single isomer, unassigned) [Example 181c, 1-(4-(Hydroxy(1-methyl-1H-imidazol-5-yl)(3-phenyl-2,4-bis(trifluoromethyl)quinolin-6-yl)methyl)piperidin-1-yl)ethanone]	105	0.053 µM	–	0.023	–	0.16
COc1nc2c(C)cc(C(O)(c3ccc(C(F)(F)F)nc3)c3cncn3C)cc2c(Cl)c1-c1ccc(OC(F)(F)F)cc1 (single isomer, unassigned) [Example 183b, (4-Chloro-2-methoxy-8-methyl-3-(4-(trifluoromethoxy)phenyl)quinolin-6-yl)(1-methyl-1H-imidazol-5-yl)(6-(trifluoromethyl)pyridin-3-yl)methanol]	34	> 6 µM	1.2	0.0037	–	–
COc1nc2c(C)cc(C(O)(c3ccc(C(F)(F)F)nc3)c3cncn3C)cc2c(Cl)c1-c1ccc(OC(F)(F)F)cc1 (single isomer, unassigned) [Example 183c, (4-Chloro-2-methoxy-8-methyl-3-(4-(trifluoromethoxy)phenyl)quinolin-6-yl)(1-methyl-1H-imidazol-5-yl)(6-(trifluoromethyl)pyridin-3-yl)methanol]	73	0.36 µM	–	0.19	–	0.87
Cc1cc(C(O)(c2ccc(C(F)(F)F)nc2)c2cncn2C)cc2c(C#N)c(-c3ccc(F)cc3)c(C#N)nc12 (single isomer, unassigned) [Example 184c, 3-(4-Fluorophenyl)-6-(hydroxy(1-methyl-1H-imidazol-5-yl)(6-(trifluoromethyl)pyridin-3-yl)methyl)-8-methylquinoline-2,4-dicarbonitrile]	97	0.26 µM	0.7	0.041	–	–
Cn1cncc1C(O)(c1ccc2nc(C(F)(F)F)c(-c3ccccc3)c(C(F)(F)F)c2c1)c1ccccn1 (single isomer, unassigned) [Example 185b, (1-Methyl-1H-imidazol-5-yl)(3-phenyl-2,4-bis(trifluoromethyl)quinolin-6-yl)(pyridin-2-yl)methanol]	–	0.13 µM	0.096	0.029	103	–
OC(c1ccccc1)(c1cccnc1)c1ccc2nc(Cl)c(-c3ccccc3Cl)c(Cl)c2c1 (stereo not shown) [Example 6, (2,4-Dichloro-3-(2-chlorophenyl)quinolin-6-yl)(phenyl)(pyridin-3-yl)methanol]	–	0.24 µM	~6	0.074	90	–
COc1ccc(C(O)(c2ccc3nc(Cl)c(-c4ccccc4)c(Cl)c3c2)c2cncn2C)cn1 (stereo not shown) [Example 10, (2,4-Dichloro-3-phenylquinolin-6-yl)(6-methoxypyridin-3-yl)(1-methyl-1H-imidazol-5-yl)methanol•TFA]	–	0.15 µM	0.59	0.029	98	–

Source: patent publication US9309222B2, “Phenyl linked quinolinyl modulators of RORγt” (Janssen Pharmaceutica NV, priority 2012, dated 2016)
